# Paper PMC10178848, “Modulating fast skeletal muscle contraction protects skeletal muscle in animal models of Duchenne muscular dystrophy” (The Journal of Clinical Investigation, 2023)
# System: GRMD plasma proteins
# Assay type: in vivo, dog
# Details: EDG-5506 treatment to GRMD baseline
smiles,measurement,setting,value
O=c1ccc(-c2cnc(OCC(F)(F)F)nc2)nn1Cc1cncc(F)c1 [EDG-5506],Proteasome activator complex subunit 3 (PSME3): Change from GRMD Baseline (fraction),Decreased in GRMD,0.0977 fraction
same,Protein S100-A4 (S100A4): Change from GRMD Baseline (fraction),Decreased in GRMD,0.1824 fraction
same,Protein amnionless (AMN): Change from GRMD Baseline (fraction),Decreased in GRMD,0.1425 fraction
same,Protein jagged-1 (JAG1): Change from GRMD Baseline (fraction),Decreased in GRMD,0.2072 fraction
same,Retinol-binding protein 4 (RBP4): Change from GRMD Baseline (fraction),Decreased in GRMD,0.0942 fraction
same,Roundabout homolog 2 (ROBO2): Change from GRMD Baseline (fraction),Decreased in GRMD,0.1874 fraction
same,SLIT and NTRK-like protein 5 (SLITRK5): Change from GRMD Baseline (fraction),Decreased in GRMD,0.1091 fraction
same,SPARC (SPARC): Change from GRMD Baseline (fraction),Decreased in GRMD,0.0605 fraction
same,Sclerostin (SOST): Change from GRMD Baseline (fraction),Decreased in GRMD,0.197 fraction
same,Semaphorin-3E (SEMA3E): Change from GRMD Baseline (fraction),Decreased in GRMD,-0.0152 fraction
same,Semaphorin-5A (SEMA5A): Change from GRMD Baseline (fraction),Decreased in GRMD,0.0882 fraction
same,Serum albumin (ALB): Change from GRMD Baseline (fraction),Decreased in GRMD,0.068 fraction
same,Sialic acid-binding Ig-like lectin 6 (SIGLEC6): Change from GRMD Baseline (fraction),Decreased in GRMD,0.1345 fraction
same,Stem cell growth factor-alpha (CLEC11A): Change from GRMD Baseline (fraction),Decreased in GRMD,-0.071 fraction
same,T-lymphocyte surface antigen Ly-9 (LY9): Change from GRMD Baseline (fraction),Decreased in GRMD,0.0785 fraction
same,TGF-beta receptor type-2 (TGFBR2): Change from GRMD Baseline (fraction),Decreased in GRMD,-0.0644 fraction
same,Tropomyosin alpha-1 chain (TPM1): Change from GRMD Baseline (fraction),Decreased in GRMD,0.0152 fraction
same,Tumor necrosis factor receptor superfamily member 10B (TNFRSF10B): Change from GRMD Baseline (fraction),Decreased in GRMD,0.131 fraction
same,Tumor necrosis factor-inducible gene 6 protein (TNFAIP6): Change from GRMD Baseline (fraction),Decreased in GRMD,0.2046 fraction
same,Wnt inhibitory factor 1 (WIF1): Change from GRMD Baseline (fraction),Decreased in GRMD,0.0365 fraction
same,Activated Protein C (PROC): Change from GRMD Baseline (fraction),Increased in GRMD,-0.0147 fraction
same,Adiponectin (ADIPOQ): Change from GRMD Baseline (fraction),Increased in GRMD,-0.1461 fraction
same,Alanine aminotransferase 1 (GPT): Change from GRMD Baseline (fraction),Increased in GRMD,-0.0729 fraction
same,Alpha-2-antiplasmin (SERPINF2): Change from GRMD Baseline (fraction),Increased in GRMD,-0.0328 fraction
same,Apolipoprotein D (APOD): Change from GRMD Baseline (fraction),Increased in GRMD,-0.0675 fraction
same,Apolipoprotein L1 (APOL1): Change from GRMD Baseline (fraction),Increased in GRMD,-0.1374 fraction
same,Asialoglycoprotein receptor 1 (ASGR1): Change from GRMD Baseline (fraction),Increased in GRMD,-0.009 fraction
same,Bone morphogenetic protein 1 (BMP1): Change from GRMD Baseline (fraction),Increased in GRMD,0.0186 fraction
same,Breast cancer anti-estrogen resistance protein 3 (BCAR3): Change from GRMD Baseline (fraction),Increased in GRMD,-0.0831 fraction
same,C5a anaphylatoxin (C5): Change from GRMD Baseline (fraction),Increased in GRMD,0.2048 fraction
same,C-C motif chemokine 1 (CCL1): Change from GRMD Baseline (fraction),Increased in GRMD,-0.0825 fraction
same,C-C motif chemokine 3 (CCL3): Change from GRMD Baseline (fraction),Increased in GRMD,-0.078 fraction
same,C-X-C motif chemokine 5 (CXCL5): Change from GRMD Baseline (fraction),Increased in GRMD,-0.0608 fraction
same,CD63 antigen (CD63): Change from GRMD Baseline (fraction),Increased in GRMD,-0.0803 fraction
same,CD97 antigen (CD97): Change from GRMD Baseline (fraction),Increased in GRMD,-0.1124 fraction
same,CD109 antigen (CD109): Change from GRMD Baseline (fraction),Increased in GRMD,-0.0257 fraction
same,CD177 antigen (CD177): Change from GRMD Baseline (fraction),Increased in GRMD,-0.1306 fraction
same,Carbonic anhydrase 4 (CA4): Change from GRMD Baseline (fraction),Increased in GRMD,-0.0922 fraction
same,Caspase-3 (CASP3): Change from GRMD Baseline (fraction),Increased in GRMD,-0.0323 fraction
same,Cell adhesion molecule 3 (CADM3): Change from GRMD Baseline (fraction),Increased in GRMD,-0.0647 fraction
same,"Change from GRMD Baseline (fraction): 1-phosphatidylinositol 4,5-bisphosphate phosphodiesterase gamma-1 (PLCG1)",Increased in GRMD,-0.0855 fraction
same,"Change from GRMD Baseline (fraction): 14-3-3 protein family (YWHAB,YWHAE,YWHAG,YWHAH,YWHAQ,YWHAZ,SFN)",Increased in GRMD,-0.1463 fraction
same,Change from GRMD Baseline (fraction): 26S proteasome non-ATPase regulatory subunit 7 (PSMD7),Increased in GRMD,0.0373 fraction
same,Change from GRMD Baseline (fraction): 40S ribosomal protein S7 (RPS7),Increased in GRMD,-0.3231 fraction
same,Change from GRMD Baseline (fraction): A disintegrin and metalloproteinase with thrombospondin motifs 5 (ADAMTS5),Increased in GRMD,0.004 fraction
same,Change from GRMD Baseline (fraction): A disintegrin and metalloproteinase with thrombospondin motifs 15 (ADAMTS15),Increased in GRMD,-0.0189 fraction
same,Change from GRMD Baseline (fraction): AH receptor-interacting protein (AIP),Increased in GRMD,-0.1069 fraction
same,Change from GRMD Baseline (fraction): AMP Kinase (alpha2beta2gamma1) (PRKAA2 PRKAB2 PRKAG1),Increased in GRMD,-0.3422 fraction
same,"Change from GRMD Baseline (fraction): ATP synthase subunit beta, mitochondrial (ATP5B)",Increased in GRMD,0.3871 fraction
same,Change from GRMD Baseline (fraction): ATP-dependent RNA helicase DDX19B (DDX19B),Increased in GRMD,-0.2236 fraction
same,Change from GRMD Baseline (fraction): Acidic leucine-rich nuclear phosphoprotein 32 family member B (ANP32B),Increased in GRMD,-0.3439 fraction
same,Change from GRMD Baseline (fraction): Activin receptor type-1B (ACVR1B),Increased in GRMD,-0.0675 fraction
same,Change from GRMD Baseline (fraction): Adenylate kinase isoenzyme 1 (AK1),Increased in GRMD,-0.5663 fraction
same,Change from GRMD Baseline (fraction): Adenylosuccinate lyase (ADSL),Increased in GRMD,0.1427 fraction
same,Change from GRMD Baseline (fraction): Afamin (AFM),Increased in GRMD,-0.1952 fraction
same,Change from GRMD Baseline (fraction): Aflatoxin B1 aldehyde reductase member 2 (AKR7A2),Increased in GRMD,-0.1733 fraction
same,Change from GRMD Baseline (fraction): Alcohol dehydrogenase [NADP(+)] (AKR1A1),Increased in GRMD,-0.2833 fraction
same,Change from GRMD Baseline (fraction): Aminoacylase-1 (ACY1),Increased in GRMD,-0.4238 fraction
same,Change from GRMD Baseline (fraction): Amphoterin-induced protein 2 (AMIGO2),Increased in GRMD,0.0688 fraction
same,Change from GRMD Baseline (fraction): Annexin A6 (ANXA6),Increased in GRMD,-0.2759 fraction
same,Change from GRMD Baseline (fraction): Anterior gradient protein 2 homolog (AGR2),Increased in GRMD,-0.0848 fraction
same,Change from GRMD Baseline (fraction): Apolipoprotein E (APOE),Increased in GRMD,-0.1554 fraction
same,Change from GRMD Baseline (fraction): Apolipoprotein E (isoform E3) (APOE),Increased in GRMD,0.0588 fraction
same,Change from GRMD Baseline (fraction): Apolipoprotein E (isoform E4) (APOE),Increased in GRMD,-0.0389 fraction
same,Change from GRMD Baseline (fraction): Apoptosis regulator Bcl-2 (BCL2),Increased in GRMD,-0.1414 fraction
same,Change from GRMD Baseline (fraction): Artemin (ARTN),Increased in GRMD,-0.0443 fraction
same,Change from GRMD Baseline (fraction): Arylsulfatase B (ARSB),Increased in GRMD,-0.0585 fraction
same,Change from GRMD Baseline (fraction): B-cell receptor CD22 (CD22),Increased in GRMD,-0.1198 fraction
same,Change from GRMD Baseline (fraction): Baculoviral IAP repeat-containing protein 5 (BIRC5),Increased in GRMD,-0.1027 fraction
same,Change from GRMD Baseline (fraction): Basal Cell Adhesion Molecule (BCAM),Increased in GRMD,-0.0829 fraction
same,Change from GRMD Baseline (fraction): Bcl-2-like protein 1 (BCL2L1),Increased in GRMD,-0.0786 fraction
same,Change from GRMD Baseline (fraction): Bone sialoprotein 2 (IBSP),Increased in GRMD,-0.0968 fraction
same,Change from GRMD Baseline (fraction): C-C motif chemokine 13 (CCL13),Increased in GRMD,-0.0908 fraction
same,Change from GRMD Baseline (fraction): C-C motif chemokine 23 (CCL23),Increased in GRMD,-0.0571 fraction
same,Change from GRMD Baseline (fraction): CCAAT/enhancer-binding protein beta (CEBPB),Increased in GRMD,-0.0589 fraction
same,Change from GRMD Baseline (fraction): CD59 glycoprotein (CD59),Increased in GRMD,-0.0497 fraction
same,Change from GRMD Baseline (fraction): Calcineurin (PPP3CA PPP3R1),Increased in GRMD,-0.2961 fraction
same,Change from GRMD Baseline (fraction): Calcineurin subunit B type 1 (PPP3R1),Increased in GRMD,-0.1572 fraction
same,Change from GRMD Baseline (fraction): Calcium/calmodulin-dependent protein kinase type 1 (CAMK1),Increased in GRMD,-0.1284 fraction
same,Change from GRMD Baseline (fraction): Calcium/calmodulin-dependent protein kinase type 1D (CAMK1D),Increased in GRMD,-0.0749 fraction
same,Change from GRMD Baseline (fraction): Calcium/calmodulin-dependent protein kinase type II subunit alpha (CAMK2A),Increased in GRMD,-0.4545 fraction
same,Change from GRMD Baseline (fraction): Calcium/calmodulin-dependent protein kinase type II subunit beta (CAMK2B),Increased in GRMD,-0.4519 fraction
same,Change from GRMD Baseline (fraction): Calcium/calmodulin-dependent protein kinase type II subunit delta (CAMK2D),Increased in GRMD,-0.3407 fraction
same,Change from GRMD Baseline (fraction): Calpain I (CAPN1 CAPNS1),Increased in GRMD,-0.011 fraction
same,Change from GRMD Baseline (fraction): Calpastatin (CAST),Increased in GRMD,-0.036 fraction
same,Change from GRMD Baseline (fraction): Carbonic anhydrase 3 (CA3),Increased in GRMD,-0.4126 fraction
same,Change from GRMD Baseline (fraction): Cardiotrophin-1 (CTF1),Increased in GRMD,-0.0756 fraction
same,Change from GRMD Baseline (fraction): Catalase (CAT),Increased in GRMD,-0.1548 fraction
same,Change from GRMD Baseline (fraction): Choline/ethanolamine kinase (CHKB),Increased in GRMD,-0.0698 fraction
same,Change from GRMD Baseline (fraction): Chymase (CMA1),Increased in GRMD,-0.0479 fraction
same,Change from GRMD Baseline (fraction): Clusterin (CLU),Increased in GRMD,-0.1079 fraction
same,Change from GRMD Baseline (fraction): Complement component C6 (C6),Increased in GRMD,0.1732 fraction
same,Change from GRMD Baseline (fraction): Complement component C8 (C8A C8B C8G),Increased in GRMD,-0.1065 fraction
same,Change from GRMD Baseline (fraction): Complement factor D (CFD),Increased in GRMD,-0.1183 fraction
same,Change from GRMD Baseline (fraction): Creatine kinase M-type (CKM),Increased in GRMD,-0.3439 fraction
same,Change from GRMD Baseline (fraction): Creatine kinase M-type:Creatine kinase B-type heterodimer (CKB CKM),Increased in GRMD,-0.3657 fraction
same,Change from GRMD Baseline (fraction): Cyclin-dependent kinase inhibitor 1B (CDKN1B),Increased in GRMD,-0.1686 fraction
same,Change from GRMD Baseline (fraction): Cysteine and glycine-rich protein 3 (CSRP3),Increased in GRMD,-0.0108 fraction
same,Change from GRMD Baseline (fraction): Cytochrome c (CYCS),Increased in GRMD,-0.561 fraction
same,Change from GRMD Baseline (fraction): DNA repair protein RAD51 homolog 1 (RAD51),Increased in GRMD,-0.1205 fraction
same,Change from GRMD Baseline (fraction): Desmoglein-1 (DSG1),Increased in GRMD,-0.0821 fraction
same,Change from GRMD Baseline (fraction): Dickkopf-like protein 1 (DKKL1),Increased in GRMD,-0.0601 fraction
same,Change from GRMD Baseline (fraction): Down syndrome cell adhesion molecule (DSCAM),Increased in GRMD,-0.0864 fraction
same,Change from GRMD Baseline (fraction): Dual specificity mitogen-activated protein kinase kinase 1 (MAP2K1),Increased in GRMD,-0.3654 fraction
same,Change from GRMD Baseline (fraction): Dual specificity protein phosphatase 3 (DUSP3),Increased in GRMD,-0.3709 fraction
same,Change from GRMD Baseline (fraction): Dynein light chain roadblock-type 1 (DYNLRB1),Increased in GRMD,-0.5348 fraction
same,Change from GRMD Baseline (fraction): Ectonucleoside triphosphate diphosphohydrolase 1 (ENTPD1),Increased in GRMD,-0.1101 fraction
same,Change from GRMD Baseline (fraction): Endothelin-converting enzyme 1 (ECE1),Increased in GRMD,-0.1039 fraction
same,Change from GRMD Baseline (fraction): Ephrin type-A receptor 1 (EPHA1),Increased in GRMD,-0.0912 fraction
same,Change from GRMD Baseline (fraction): Ephrin type-B receptor 6 (EPHB6),Increased in GRMD,0.1966 fraction
same,Change from GRMD Baseline (fraction): Epidermal growth factor (EGF),Increased in GRMD,-0.0588 fraction
same,Change from GRMD Baseline (fraction): Epidermal growth factor receptor variant III (EGFR),Increased in GRMD,-0.052 fraction
same,Change from GRMD Baseline (fraction): Erythropoietin receptor (EPOR),Increased in GRMD,-0.0772 fraction
same,Change from GRMD Baseline (fraction): Estrogen receptor (ESR1),Increased in GRMD,-0.0792 fraction
same,Change from GRMD Baseline (fraction): Eukaryotic translation initiation factor 4H (EIF4H),Increased in GRMD,-0.4334 fraction
same,Change from GRMD Baseline (fraction): Eukaryotic translation initiation factor 4 gamma 2 (EIF4G2),Increased in GRMD,-0.3268 fraction
same,Change from GRMD Baseline (fraction): Extracellular matrix protein 1 (ECM1),Increased in GRMD,-0.1471 fraction
same,Change from GRMD Baseline (fraction): Fibroblast growth factor 8 isoform B (FGF8),Increased in GRMD,-0.0878 fraction
same,Change from GRMD Baseline (fraction): Fibroblast growth factor 9 (FGF9),Increased in GRMD,-0.0286 fraction
